Legend:
GNRHR = biological target: T1, GNRHR (Homo sapiens, UniProt P30968); experiment: NanoBRET screen HiBiT-GNRHR in HEK293; format: binding
T1 construct: purchased Promega (in-house HiBiT-GPCR construct library, NanoBRET)
T1 sequence (P30968 1-328): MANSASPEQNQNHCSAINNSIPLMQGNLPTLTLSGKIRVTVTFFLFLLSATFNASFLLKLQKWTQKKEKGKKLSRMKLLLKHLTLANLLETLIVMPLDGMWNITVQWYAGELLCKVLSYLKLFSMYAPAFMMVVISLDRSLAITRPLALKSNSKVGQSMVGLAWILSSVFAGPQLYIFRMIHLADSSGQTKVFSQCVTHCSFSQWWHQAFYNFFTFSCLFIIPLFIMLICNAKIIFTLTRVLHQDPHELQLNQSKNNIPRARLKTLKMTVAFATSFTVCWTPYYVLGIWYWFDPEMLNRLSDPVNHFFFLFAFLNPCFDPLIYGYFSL
Procedure: (§1) Each tracer candidate was screened across the entire library of HiBiT-GPCR constructs using NanoBRET as the detection modality. As depicted in Figure 4A, the specificity of interactions was evaluated through decrease in BRET due to competitive displacement of a bound tracer by excess parental compound. Each tracer was analyzed for binding to each HiBiT-GPCR fusion in the absence and in the presence of competing parental compound. Briefly, HEK293 cells were transfected with HiBiT-GPCR constructs diluted into promoterless DNA to reduce expression and maximize translocation to the cell surface. Each tracer candidate was then screened at concentrations of 1 μM and 0.1 μM across cells expressing these fusions. Cells were treated for 1.5 h with tracer either alone or in the presence of 20 μM competing parental compound (i.e., control). BRET was measured upon addition of purified LgBiT and subsequent complementation with HiBiT genetically fused to a GPCR. The specificity of interactions was assessed through a decrease in BRET signal due to competitive displacement of the bound tracer. To further gauge the robustness of these interactions, the fold response over the control (i.e., BRETtracer/BRETcontrol) was calculated. We chose a 1.5-fold response, which translates to ≥7-fold signal over noise as the minimal threshold required to score an interaction as positive. […]. Below we highlight the screening results obtained for our exemplary fluorescent tracers based on Clozapine, Amitriptyline and AZD1283.
(§2) HiBiT-GPCR DNA constructs were diluted in 10 mM Tris pH 8 to a final concentration of 0.01 μg/μL, arrayed in 96-well plates and stored at −20 °C. For transfection, HEK293 cells were suspended in Opti-MEM (without phenol red) supplemented with 2% fetal bovine serum (Seradigm) and 100 units/mL penicillin–streptomycin (Gibco) at a final concentration of 220,000 cells/mL and dispensed into white 96-well plates at 90 μL/well. Subsequent transfections and screens were carried using an Agilent Bravo Automated Liquid Handling Platform. First, the 96-well HiBiT DNA arrays were diluted 25-fold in Opti-MEM (without serum or phenol red) to a final concentration of 0.0004 μg/μL and 20 μL of the diluted DNAs were transferred into new 96-well plates. Next, promoterless carrier DNA (1 μg/μL) was diluted 25-fold (0.04 μg/μL) and then dispensed into the diluted arrays at 20 μL/well. Following brief mixing, Viafect transfection reagent (Promega) diluted 16-fold into Opti-MEM was dispensed into the plates at 40 μL/well. After mixing by pipetting, plates were incubated for 10 min on the pipetting station deck. The DNA-transfection reagent complexes were then added to plates containing cells. To facilitate the screen, 10 μL of DNA-transfection reagent complexes were added in duplicates to the top 4 and bottom 4 rows, resulting in two identical 48-well arrays per plate. Plates with transfected cells were incubated for 18–20 h at 37 °C/5% CO2. A screen of each tracer across the entire library using two different concentrations requires duplicate plates of transfected cells. Depending on the number of tracers being screened, transfections can be scaled up using the same ratios. The next day, for each tracer, four 20× screening solutions in tracer dilution buffer (Promega) were prepared: two duplicates at final concentration of 20 μM and two duplicates at a final concentration of 2 μM. A competing unmodified compound was added to one of each duplicate at a final concentration of 400 μM. The four resulting solutions were diluted 4-fold in Opti-MEM without serum or phenol red to generate 5× solutions (5 µM and 0.5 µM tracer +/− 100 μM competing compound). To screen the library, a BioTek MultiFlo FX liquid dispenser was used to dispense 22.5 µL of tracer solution to the top 4 rows and 22.5 µL tracer + competing compound solution to the 4 bottom rows. Plates were briefly mixed on an orbital shaker and incubated for 1.5 h at room temperature. […]

PTGFR = biological target: T2, PTGFR (Homo sapiens, UniProt P43088); experiment: NanoBRET screen HiBiT-PTGFR in HEK293; format: binding
T2 construct: purchased Promega (in-house HiBiT-GPCR construct library, NanoBRET)
T2 sequence (P43088 whole entry): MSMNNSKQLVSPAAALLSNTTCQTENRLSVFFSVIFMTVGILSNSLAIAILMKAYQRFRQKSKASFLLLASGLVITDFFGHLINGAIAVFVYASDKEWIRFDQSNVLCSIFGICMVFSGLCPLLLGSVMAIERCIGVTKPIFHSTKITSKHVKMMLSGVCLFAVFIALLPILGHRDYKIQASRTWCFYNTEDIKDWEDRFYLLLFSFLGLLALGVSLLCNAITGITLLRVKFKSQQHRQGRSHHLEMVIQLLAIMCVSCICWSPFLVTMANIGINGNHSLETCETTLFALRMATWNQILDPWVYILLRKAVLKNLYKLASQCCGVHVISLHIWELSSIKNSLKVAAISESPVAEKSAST
Procedure: as §1, §2

Structure (SMILES)	NanoBRET Fold Response (GNRHR; GNRHR, tracer 0.1μM)	NanoBRET Fold Response (GNRHR; GNRHR, tracer 1μM)	NanoBRET Fold Response (PTGFR; PTGFR, tracer 0.1μM)	NanoBRET Fold Response (PTGFR; PTGFR, tracer 1μM)	other results
O=C(CCc1ccc2n1[B-](F)(F)[N+]1=C(c3ccc[nH]3)C=CC1=C2)NCc1ccc(C(=O)NCCOCCC(=O)N[C@@H]2CC[C@@]3(O)[C@H]4Cc5ccc(O)c6c5[C@@]3(CCN4CC3CC3)[C@H]2O6)cc1 [Naltrexone-3-NB590]	0.90	0.99	1.10	0.91	–
CCCn1c(=O)c2[nH]c(-c3ccc(OCC(=O)NCCNC(=O)CCOCCNC(=O)c4ccc(CNC(=O)CCc5ccc6n5[B-](F)(F)[N+]5=C(c7ccc[nH]7)C=CC5=C6)cc4)cc3)nc2n(CCC)c1=O [XAC-3-NB590]	0.94	0.98	1.02	0.98	–
CC(C)N(CC[C@H](c1ccccc1)c1cc(CCNC(=O)c2ccc(CNC(=O)CCc3ccc4n3[B-](F)(F)[N+]3=C(c5ccc[nH]5)C=CC3=C4)cc2)ccc1O)C(C)C [Tolterodine-BZ-NB590]	1.03	1.07	0.99	1.01	–
COc1ccc2[nH]c(-c3ccc(CNC(=O)CCOCCOCCOCCOCCNC(=O)CCc4ccc5n4[B-](F)(F)[N+]4=C(c6ccc[nH]6)C=CC4=C5)cc3)c(CCNC(C)=O)c2n1 [AzomelatoninICO9-2-NB590]	–	–	–	–	NanoBRET Fold Response (GNRHR; 0.1μM tracer): 0.61; NanoBRET Fold Response (GNRHR; 1μM tracer): 0.98; NanoBRET Fold Response (PTGFR; 0.1μM tracer): 0.97; NanoBRET Fold Response (PTGFR; 1μM tracer): 0.91
CN1CCN(C2=Nc3cc(Cl)ccc3N(CC(=O)NCCOCCOCCOCCOCCNC(=O)CCc3ccc4n3[B-](F)(F)[N+]3=C(c5ccc[nH]5)C=CC3=C4)c3ccccc32)CC1 [Clozapine-c-2-NB590]	–	–	–	–	NanoBRET Fold Response (GNRHR; GNRHR, 0.1μM tracer): 1.02; NanoBRET Fold Response (GNRHR; GNRHR, 1μM tracer): 0.99; NanoBRET Fold Response (PTGFR; PTGFR, 0.1μM tracer): 1.00; NanoBRET Fold Response (PTGFR; PTGFR, 1μM tracer): 1.10
COc1ccccc1N1CCN(CCCCN2C(=O)c3ccc(CNC(=O)CCOCCNC(=O)c4ccc(CNC(=O)CCc5ccc6n5[B-](F)(F)[N+]5=C(c7ccc[nH]7)C=CC5=C6)cc4)cc3C2=O)CC1 [NAN-190-3-NB590]	1.14	0.97	0.96	0.90	–
Cc1nc2n(c(=O)c1CCN1CCC(c3noc4cc(F)ccc34)CC1)CCCC2OC(=O)NCCOCCOCCOCCOCCNC(=O)CCc1ccc2n1[B-](F)(F)[N+]1=C(c3ccc[nH]3)C=CC1=C2 (centres unmarked) [Risperidone-2-NB590]	0.88	0.97	1.00	1.02	–
O=C(CCOCCOCCOCCOCCNC(=O)CCc1ccc2n1[B-](F)(F)[N+]1=C(c3ccc[nH]3)C=CC1=C2)NCCCN1CCN(C2=Nc3ccccc3Oc3ccc(Cl)cc32)CC1 [Loxapine-a-2-NB590]	1.03	0.89	1.03	1.02	–
COc1ccccc1N1CCN(CCCCN2C(=O)c3ccc(CNC(=O)CCOCCOCCOCCOCCNC(=O)CCc4ccc5n4[B-](F)(F)[N+]4=C(c6ccc[nH]6)C=CC4=C5)cc3C2=O)CC1 [NAN-190-2-NB590]	0.98	0.95	1.00	1.00	–
CC(C)N(CC[C@H](c1ccccc1)c1cc(CCNC(=O)CCOCCOCCOCCOCCNC(=O)CCc2ccc3n2[B-](F)(F)[N+]2=C(c4ccc[nH]4)C=CC2=C3)ccc1O)C(C)C [Tolterodine-2-NB590]	1.23	1.15	0.84	0.94	–
N#CN=C(NCCCOc1cccc(CN2CCCCC2)c1)NCCNC(=O)CCOCCOCCOCCOCCNC(=O)CCc1ccc2n1[B-](F)(F)[N+]1=C(c3ccc[nH]3)C=CC1=C2 [Aminopotentidine-2-NB590]	1.04	0.98	0.99	0.93	–
CCOC(=O)c1cc(C#N)c(N2CCC(C(=O)NS(=O)(=O)Cc3ccccc3/C=C/C(=O)NCCNC(=O)CCc3ccc4n3[B-](F)(F)[N+]3=C(c5ccc[nH]5)C=CC3=C4)CC2)nc1C [AZD1283-1-NB590]	–	–	–	–	NanoBRET Fold Response (GNRHR; GNRHR, 0.1μM): 1.09; NanoBRET Fold Response (GNRHR; GNRHR, 1μM): 1.08; NanoBRET Fold Response (PTGFR; PTGFR, 0.1μM): 1.02; NanoBRET Fold Response (PTGFR; PTGFR, 1μM): 1.02
CN(C)CCC=C1c2ccccc2CCc2ccc(C(=O)NCCNC(=O)CCOCCOCCOCCOCCNC(=O)CCc3ccc4n3[B-](F)(F)[N+]3=C(c5ccc[nH]5)C=CC3=C4)cc21 [Amitriptyline-b-2-NB590]	–	–	–	–	NanoBRET Fold Response (GNRHR; tracer at 0.1μM, listed as amitriptyline-b-2-NB590): 1.21; NanoBRET Fold Response (GNRHR; tracer at 1μM, listed as amitriptyline-b-2-NB590): 0.91; NanoBRET Fold Response (PTGFR; tracer at 0.1μM): 1.01; NanoBRET Fold Response (PTGFR; tracer at 1μM): 1.00
CN(C)CCC=C1c2ccccc2CCc2ccc(C(=O)NCCNC(=O)CCOCCOCCOCCOCCNC(=O)CCc3ccc4n3[B-](F)(F)[N+]3=C(c5ccc[nH]5)C=CC3=C4)cc21 [Amitriptyline-a-2-NB590]	–	–	–	–	NanoBRET Fold Response (GNRHR; tracer at 0.1μM): 0.97; NanoBRET Fold Response (GNRHR; tracer at 1μM): 1.06
O=C(CCc1ccc2n1[B-](F)(F)[N+]1=C(c3ccc[nH]3)C=CC1=C2)NCCOCCOCCNC(=O)OCCOCCN1CCN(C2=Nc3ccccc3Sc3ccccc32)CC1 [Quetiapine-a-2-NB590]	0.97	0.81	1.00	1.06	–
Cc1cc2c(s1)Nc1ccccc1N=C2N1CCN(CCCNC(=O)CCOCCOCCOCCOCCNC(=O)CCc2ccc3n2[B-](F)(F)[N+]2=C(c4ccc[nH]4)C=CC2=C3)CC1 [Olanzapine-a-2-NB590]	1.02	1.04	1.03	1.07	–
CN1CCN(C2=Nc3cc(Cl)ccc3Nc3ccc(CNC(=O)CCOCCOCCOCCOCCNC(=O)CCc4ccc5n4[B-](F)(F)[N+]4=C(c6ccc[nH]6)C=CC4=C5)cc32)CC1 [Clozapine-b-2-NB590]	–	–	–	–	NanoBRET Fold Response (GNRHR; GNRHR, 0.1μM tracer): 1.06; NanoBRET Fold Response (GNRHR; GNRHR, 1μM tracer): 1.02; NanoBRET Fold Response (PTGFR; PTGFR, 0.1μM tracer): 1.02; NanoBRET Fold Response (PTGFR; PTGFR, 1μM tracer): 1.07
COc1ccc2c(n1)c(CCNC(C)=O)cn2CCNC(=O)CCc1ccc2n1[B-](F)(F)[N+]1=C(c3ccc[nH]3)C=CC1=C2 [Azamelatonin-1-NB590]	–	–	–	–	NanoBRET Fold Response (GNRHR; 0.1μM tracer): 0.96; NanoBRET Fold Response (GNRHR; 1μM tracer): 1.06; NanoBRET Fold Response (PTGFR; 0.1μM tracer): 1.13; NanoBRET Fold Response (PTGFR; 1μM tracer): 0.90
O=C(CCc1ccc2n1[B-](F)(F)[N+]1=C(c3ccc[nH]3)C=CC1=C2)NCc1ccc(C(=O)NCCOCCOCCNCC(O)COc2cccc3ccccc23)cc1 (centres unmarked) [Propranolol-3-NB590]	–	–	–	–	NanoBRET Fold Response (GNRHR; GNRHR, 0.1μM): 1.12; NanoBRET Fold Response (GNRHR; GNRHR, 1μM): 1.03; NanoBRET Fold Response (PTGFR; PTGFR, 0.1μM): 0.97; NanoBRET Fold Response (PTGFR; PTGFR, 1μM): 1.00

From publication PMC8151276, “An Integrated Approach toward NanoBRET Tracers for Analysis of GPCR Ligand Engagement” (Molecules, 2021)
